We go through two compounds from ChEMBL document CHEMBL5120753, “Isolation and biological activity of azocine and azocane alkaloids” (Bioorg Med Chem, 2022).

Converted amounts (≈) assume the structure as drawn.

What is called MIC is the smallest concentration in the dilution series that meets the test's criterion for growth inhibition. As a reminder, the IC50 is the midpoint of a concentration-inhibition curve.

In series [1] the test system is Trichophyton mentagrophytes. In words: […] activity against Trichophyton mentagrophytes assessed as […]. Format: functional.
For series [2], the target named is Cyclin-dependent kinase 4 (Homo sapiens, UniProt P11802). The series is described as follows: Inhibition of CDK4 (unknown origin).
Cyclin-dependent kinase 4, sequence (P11802 whole entry): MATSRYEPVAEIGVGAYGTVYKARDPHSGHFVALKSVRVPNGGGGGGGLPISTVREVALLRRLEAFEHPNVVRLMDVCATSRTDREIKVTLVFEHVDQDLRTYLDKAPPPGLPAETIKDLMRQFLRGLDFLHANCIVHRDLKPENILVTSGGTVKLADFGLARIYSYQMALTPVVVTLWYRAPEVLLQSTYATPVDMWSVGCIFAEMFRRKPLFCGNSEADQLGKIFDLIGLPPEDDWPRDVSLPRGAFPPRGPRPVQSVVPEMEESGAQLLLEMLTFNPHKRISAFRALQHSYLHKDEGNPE
A further series has as its system L1210. The series is described as follows: Cytotoxicity against mouse L1210 cells assessed as cell growth inhibition. Format: functional, cell-based.
The next series has as its system Corynebacterium xerosis. The series is described as follows: Antibacterial activity against Corynebacterium xerosis assessed as bacterial growth inhibition. Format: functional.
Series [3] is described as follows: Toxicity in mouse assessed as lethal dose. As to conditions: in vivo.

For the compound `C1=C\CCc2cc3c(o2)[C@@H]2N4CCCC/C=C\[C@H]4C[C@@]24CN(CCCC/1)CC[C@@H]34`, the figures for the MIC (in series [1]; in the series on Corynebacterium xerosis) were 23 µg/mL (≈ 58.6 µM) and 11 µg/mL (≈ 28 µM), respectively. Moreover, the IC50 in series [2] is 25.2 µM; with L1210, 1.3 µg/mL (≈ 3.31 µM).

Consider `C[N@@+]12CC[C@]34c5ccccc5N5/C=C6\[C@@H]7N(/C=C(\[C@H]53)[C@H](C[C@@H]41)/C(=C\CO)C2)c1ccccc1[C@@]71CC[N@@+]2(C)C/C(=C/CO)[C@H]6C[C@@H]12`, for which the LD in series [3] turned out to be 0.8 mg/kg.
